# Experimental data: ChEMBL document CHEMBL3425444, “Discovery of piperidin-4-yl-aminopyrimidine derivatives as potent non-nucleoside HIV-1 reverse transcriptase inhibitors” (Eur J Med Chem, 2015)
# Legend:
# [1] = tested on: Human immunodeficiency virus 1; assay: Antiviral activity against wild type HIV1 3B infected in human MT4 cells assessed as protection from virus-induced cytopathicity after 4 days by MTT assay; type: functional, organism-based; settings: Human immunodeficiency virus 1, 3B, MT4, 96 h
# [2] = tested on: Human immunodeficiency virus 1; assay: Antiviral activity against HIV-1 RES056 harboring reverse transcriptase K103N/Y181C double mutant infected in human MT4 cells assessed as protection from virus-induced cytopathicity after 4 days by MTT assay; type: functional, organism-based; settings: Human immunodeficiency virus 1, RES056, MT4, 96 h
# [3] = tested on: Human immunodeficiency virus 2; assay: Antiviral activity against HIV-2 ROD infected in human MT4 cells assessed as protection from virus-induced cytopathicity after 4 days by MTT assay; type: functional, organism-based; settings: Human immunodeficiency virus 2, ISOLATE ROD, MT4, 96 h
# [4] = Cytotoxicity against human MT4 cells assessed as reduction of cell viability after 4 days by MTT assay; type: cell-based
# [5] = Selectivity index, ratio of CC50 for human MT4 cells to EC50 for HIV1 3B infected in human MT4 cells; type: toxicity, cell-based; settings: HIV1 3B infected MT4 cells, read-out: Selectivity Index
# [6] = Retention time of the compound by HPLC analysis; type: physicochemical
# [7] = target: Human immunodeficiency virus type 1 reverse transcriptase (Human immunodeficiency virus 1, UniProt Q72547); assay: Inhibition of HIV1 recombinant wild type reverse transcriptase p66/p51 assessed as reduction in biotin-labeled dUTP incorporation into DNA using polyr(A) x oligo(dT)16 template/primer hybrid
Structure (SMILES),EC50 [1],EC50 [2],EC50 [3],CC50 at 96 h [4],selectivity ratio [5],Retention_time [6],IC50 [7]
Cc1cccc(NC(=O)CN2CCC(Nc3nccc(Oc4c(C)cc(C#N)cc4C)n3)CC2)c1,0.0066 µM,> 1.68 µM,> 1.68 µM,1.68 µM,254,11.43 min,–
Cc1cc(C#N)cc(C)c1Oc1ccnc(NC2CCN(CC(=O)Nc3ccc(F)cc3)CC2)n1,0.0042 µM,> 1.81 µM,> 1.81 µM,1.81 µM,431,10.85 min,0.204 µM
Cc1cc(C#N)cc(C)c1Oc1ccnc(NC2CCN(CC(=O)Nc3ccc(Br)cc3)CC2)n1,0.0062 µM,> 1.48 µM,> 1.48 µM,1.48 µM,238,11.85 min,–
Cc1cc(C#N)cc(C)c1Oc1ccnc(NC2CCN(CC(=O)Nc3ccc(Cl)cc3Cl)CC2)n1,0.118 µM,> 1.75 µM,> 1.75 µM,1.75 µM,15,13.21 min,–
Cc1cc(S(N)(=O)=O)ccc1NC(=O)CN1CCC(Nc2nccc(Oc3c(C)cc(C#N)cc3C)n2)CC1,0.0053 µM,> 1.64 µM,> 1.64 µM,1.64 µM,309,9.61 min,0.166 µM
Cc1cc(C#N)cc(C)c1Oc1ccnc(NC2CCN(CC(=O)Nc3ccc(Cl)cc3)CC2)n1,0.0061 µM,> 0.998 µM,> 0.998 µM,0.998 µM,164,11.62 min,–
Cc1cc(C#N)cc(C)c1Oc1ccnc(NC2CCN(CC(=O)Nc3cccc(Cl)c3)CC2)n1,0.0059 µM,> 1.26 µM,> 1.26 µM,1.26 µM,214,11.95 min,–
Cc1cc(C#N)cc(C)c1Oc1ccnc(NC2CCN(CC(=O)Nc3ccccc3[N+](=O)[O-])CC2)n1,0.0419 µM,> 59.3 µM,> 59.3 µM,59.3 µM,1420,11.75 min,0.193 µM
O=C1Nc2ccc(Cl)cc2[C@@](C#CC2CC2)(C(F)(F)F)O1 [EFAVIRENZ],0.0063 µM,–,–,> 6.34 µM,–,–,–
Cc1cc(C#N)cc(C)c1Oc1ccnc(NC2CCN(CC(=O)Nc3ccc(C#N)cc3F)CC2)n1,0.008 µM,> 1.96 µM,> 1.96 µM,1.96 µM,245,11.27 min,0.174 µM
Cc1ccccc1NC(=O)CN1CCC(Nc2nccc(Oc3c(C)cc(C#N)cc3C)n2)CC1,0.0616 µM,> 1.25 µM,> 1.25 µM,1.25 µM,20,11.33 min,–
Cc1cc(C#N)cc(C)c1Oc1nc(Nc2ccc(C#N)cc2)nc(N)c1Br [ETRAVIRINE],–,0.0253 µM,–,> 4.59 µM,> 1120,–,–
Cc1cc(C#N)cc(C)c1Oc1ccnc(NC2CCN(CC(=O)Nc3ccc(C#N)cc3)CC2)n1,0.0029 µM,> 0.602 µM,> 0.602 µM,0.602 µM,208,10.72 min,–
Cc1cc(C#N)cc(C)c1Oc1ccnc(NC2CCN(CC(=O)Nc3ccc(O)cc3)CC2)n1,0.0021 µM,> 2.18 µM,> 2.18 µM,2.18 µM,1040,10.25 min,0.102 µM
Cc1cc(C#N)cc(C)c1Oc1ccnc(NC2CCN(CC(=O)Nc3ccccc3)CC2)n1,0.0033 µM,> 1.82 µM,> 1.82 µM,1.82 µM,551,10.9 min,0.199 µM
Cc1cc(C#N)cc(C)c1Oc1ccnc(NC2CCN(CC(=O)Nc3ccc([N+](=O)[O-])cc3)CC2)n1,0.0058 µM,> 0.518 µM,> 0.518 µM,0.518 µM,89,11.13 min,0.136 µM
Cc1ccc(NC(=O)CN2CCC(Nc3nccc(Oc4c(C)cc(C#N)cc4C)n3)CC2)cc1,0.0055 µM,> 2.02 µM,> 2.02 µM,2.02 µM,367,11.29 min,0.181 µM
Cc1cc(C#N)cc(C)c1Oc1ccnc(NC2CCN(CC(=O)Nc3cccc(F)c3)CC2)n1,0.0061 µM,> 1.41 µM,> 1.41 µM,1.41 µM,231,11.41 min,–
Cc1cc(C#N)cc(C)c1Oc1ccnc(NC2CCN(CC(=O)Nc3ccc(S(N)(=O)=O)cc3)CC2)n1,0.0019 µM,> 1.61 µM,> 1.61 µM,1.61 µM,845,9.11 min,0.116 µM
COc1ccc(NC(=O)CN2CCC(Nc3nccc(Oc4c(C)cc(C#N)cc4C)n3)CC2)cc1,0.0035 µM,> 1.56 µM,> 1.56 µM,1.56 µM,446,10.82 min,–
Cc1cc(C#N)cc(C)c1Oc1ccnc(NC2CCN(CC(=O)Nc3ccccc3F)CC2)n1,0.007 µM,> 119 µM,> 119 µM,119 µM,16900,11.43 min,0.207 µM
CC(C)Nc1cccnc1N1CCN(C(=O)c2cc3cc(NS(C)(=O)=O)ccc3[nH]2)CC1 [DELAVIRDINE],–,> 43.8 µM,–,> 43.8 µM,> 67,–,–
Cc1ccc(NC(=O)CN2CCC(Nc3nccc(Oc4c(C)cc(C#N)cc4C)n3)CC2)cc1C,0.0085 µM,> 1.51 µM,> 1.51 µM,1.51 µM,177,12.21 min,–
Cc1cc(C#N)cc(C)c1Oc1ccnc(NC2CCN(CC(=O)Nc3ccccc3Cl)CC2)n1,0.0346 µM,> 1.51 µM,> 1.51 µM,1.51 µM,44,12.14 min,–
Cc1cc(C#N)cc(C)c1Oc1ccnc(NC2CCN(CC(=O)Nc3cc(Cl)cc(Cl)c3)CC2)n1,0.0761 µM,> 3.52 µM,> 3.52 µM,3.52 µM,46,13.08 min,–
Cc1cc(C#N)cc(C)c1Oc1ccnc(NC2CCN(CC(=O)Nc3ccc(Cl)c(Cl)c3)CC2)n1,0.0209 µM,> 1.28 µM,> 1.28 µM,1.28 µM,61,12.62 min,–
Cc1cc(C#N)cc(C)c1Oc1ccnc(NC2CCN(CC(=O)Nc3cccc([N+](=O)[O-])c3)CC2)n1,0.0078 µM,> 0.379 µM,> 0.379 µM,≥ 0.379 µM,≥ 49,11.49 min,0.156 µM
Cc1cc(C#N)cc(C)c1Oc1ccnc(NC2CCN(CC(=O)Nc3c(Cl)cc(Cl)cc3Cl)CC2)n1,≥ 0.304 µM,> 1.5 µM,> 1.5 µM,1.5 µM,≤ 5,11.85 min,–
Cc1cc(C)cc(NC(=O)CN2CCC(Nc3nccc(Oc4c(C)cc(C#N)cc4C)n3)CC2)c1,0.0149 µM,> 2.31 µM,> 2.31 µM,2.31 µM,155,12.18 min,–
